The test system of this data set is HRE/Luc/HEK293 cells. Nature of the data set: HRE (Hypoxia Response Element) luciferase assay. It is filed as cell-based, human. The following applies: for fold induction at 10 µM / fold induction at 100 µM: Homo sapiens; for HRE assay: increase in HRE expression levels by the test substance relative to the vehicle in HRE/Luc/HEK293 cells; for HRE expression: low concentration of 1 µM. How it is done:
• (a) HRE assay: Confirmation of increased in HRE expression levels by the test substance relative to the vehicle in HRE/Luc/HEK293 cells • * Less than a twofold increase at 100 µM, • ** More than a twofold increase at 100 µM, • *** More than a twofold increase at 10 µM, • **** More than a twofold increase at 1 µM, • Not performed.
It has been reported that in the brains of AD patients, blood supply is mostly insufficient, resulting in oxygen levels being up to 50% lower than those of normal individuals, leading to increased oxidative stress (ROS) and neuroinflammation. It has also been studied that when the HIF-1α (hypoxia inducible factor-1) factor binds to the HRE (hypoxia response element), it increases VEGF (vascular endothelial growth factor), which promotes the formation of new blood vessels, thereby increasing oxygen levels in the brain and helping to inhibit nerve cell damage.
A reporter gene containing luciferase, capable of verifying the level of HRE expression, was inserted into HEK-293 human embryonic kidney cells, and HRE/Luc/HEK293 cells were constructed by inserting a plasmid (HRE/Luc) with luciferase attached downstream of the HRE promoter that binds to HIF-1α using lipofectamine (Invitrogen).
To perform HRE luciferase analysis, HRE/Luc/HEK293 cells were seeded in 96-well culture plates at a cell density of 4 x 10^4 per well in minimal essential medium (MEM) containing 10% fetal bovine serum. After one day, the cell medium was removed and replaced with medium mixed with various concentrations of example compounds. Six hours after compound pretreatment, HRE/Luc/HEK293 cells were cultured under hypoxic conditions (O2 0.1%) for 18 hours. Subsequently, the cells were washed with phosphate buffer, lysed with lysis buffer, and then the luciferase reagent (Promega) for luciferase analysis was added. Afterward, changes in HRE expression levels associated with HIF-1 signaling were evaluated by measuring luminescence using an Infinite200 (Tecan).

[1] abbreviates: HEK293, 18 h, 10uM, Table 2 (Examples 37-74, 52), read-out: HKt-increasing 10uM.
[2] abbreviates: HEK293, 18 h, 100uM, Table 2 (Examples 37-74, 52), read-out: HKt-increasing 100uM.
Where [3] appears, read: HEK293, 18 h, 10uM, Table 2 (Examples 75-109, 114), read-out: HRE-inceasing 10uM.
Where [4] appears, read: HEK293, 18 h, 100uM, Table 2 (Examples 75-109, 114), read-out: HRE-inceasing 100uM.
[5] abbreviates: HEK293, 10uM, fold increase of HRE expression, hypoxic conditions (O2 0.1%) 18 hours, Table 2, read-out: HRE-increasing 10uM.
Setting [6] is: HEK293, 100uM, fold increase of HRE expression, hypoxic conditions (O2 0.1%) 18 hours, Table 2, read-out: HRE-increasing 100uM.

Like-named read-outs stand apart in the source and are kept apart here.

Take `CC(C)c1ccc(Oc2ccc(O[C@H]3O[C@H](CO)[C@H](O)[C@H](O)[C@H]3O)cc2)cc1` [Example 59, (2R,3R,4S,5R,6R)-2-(hydroxymethyl)-6-(4-(4-isopropylphenoxy)phenoxy)tetrahydro-2H-pyran-3,4,5-triol]: the fold induction at 10 µM under setting [1] worked out at 1.8. Besides, the fold induction at 100 µM under setting [2] amounted to 2.8.

`COc1ccc2oc(-c3ccc(O[C@H]4OC[C@@H](O)[C@H](O)[C@H]4O)cc3)nc2c1` [Example 93, (2R,3R,4S,5R)-2-(4-(5-methoxybenzo[d]oxazol-2-yl)phenoxy)tetrahydro-2H-pyran-3,4,5-triol]: under setting [3], the fold induction at 10 µM stood at 2.8. The fold induction at 100 µM under setting [4] was determined as 2.3.

Take `O[C@@H]1[C@@H](O)[C@@H](Oc2ccc(Cc3ccc(OC(F)(F)F)cc3)cc2)OC[C@@H]1O` [Example 10]: the HRE assay result is listed as “•”. The “HRE-increasing 10uM” value (10uM, fold increase of HRE expression, hypoxic conditions (O2 0.1%) 18 hours, Table 2) is on record as 1. The “HRE-increasing 100uM” value (100uM, fold increase of HRE expression, hypoxic conditions (O2 0.1%) 18 hours, Table 2) was <1.

With `COc1ccc2cc(-c3ccc(O[C@H]4OC[C@H](O)[C@H](O)[C@H]4O)cc3)oc2c1` [Example 81, (2R,3R,4S,5S)-2-(4-(6-methoxybenzofuran-2-yl)phenoxy)tetrahydro-2H-pyran-3,4,5-triol], under setting [3], the fold induction at 10 µM turned out to be 2.7. Also, the fold induction at 100 µM under setting [4] was 3.6.

As to `CO[C@H]1CO[C@H](Oc2ccc(Oc3ccc(C(C)C)cc3)cc2)[C@H](O)[C@H]1O` [Example 61, (2R,3R,4R,5S)-2-(4-(4-isopropylphenoxy)phenoxy)-5-methoxytetrahydro-2H-pyran-3,4-diol], under setting [1], the fold induction at 10 µM came to 1.1. For the same compound, the fold induction at 100 µM under setting [2] is 1.3.

For `COc1ccc2oc(-c3cccc(O[C@@H]4OC[C@H](O)[C@H](O)[C@H]4O)c3)nc2c1` [Example 106, (2S,3R,4S,5S)-2-(3-(5-methoxybenzo[d]oxazol-2-yl)phenoxy)tetrahydro-2H-pyran-3,4,5-triol], the HRE expression result is “more than threefold”. Further, the fold induction at 10 µM under setting [3] is 3.4. For the same compound, the fold induction at 100 µM under setting [4] was 1.7.

As for `COc1ccc(-c2ccc(O[C@H]3OC[C@H](O)[C@H](O)[C@H]3O)cc2)cc1` [Example 84, (2R,3R,4S,5S)-2-((4'-methoxy-[1,1'-biphenyl]-4-yl)oxy)tetrahydro-2H-pyran-3,4,5-triol], the fold induction at 10 µM under setting [3] is 2.5. Also, the fold induction at 100 µM under setting [4] was 3.5.

For `O[C@@H]1[C@@H](O)[C@H](Oc2ccc(Cc3cccnc3)cc2)OC[C@@H]1O` [Example 24, (2S,3R,4S,5S)-2-(4-(pyridin-3-ylmethyl)phenoxy)tetrahydro-2H-pyran-3,4,5-triol], the fold induction at 10 µM under setting [5] came to 1.1. In addition, the fold induction at 100 µM under setting [6] stood at 1.1.

As for `CC(C)c1ccc(Oc2ccc(O[C@H]3OC[C@H](F)[C@H](O)[C@H]3O)cc2)cc1` [Example 58, (2R,3R,4R,5S)-5-fluoro-2-(4-(4-isopropylphenoxy)phenoxy)tetrahydro-2H-pyran-3,4-diol], under setting [1], the fold induction at 10 µM was found to be 2.6. Under setting [2], the fold induction at 100 µM came out at 2.2.

In the case of `CC(C)Oc1ccc(Cc2ccc(O[C@H]3OC[C@H](O)[C@H](O)[C@H]3O)cc2)cc1` [Example 44], the fold induction at 10 µM under setting [1] came out at 1.1. Also, the fold induction at 100 µM under setting [2] turned out to be 1.3.

With `COc1ccc(Cc2ccc(O[C@@H]3OC[C@H](O)[C@H](O)[C@H]3O)cc2)cc1` [Example 4], the HRE assay result is “α”. Under setting [5], the fold induction at 10 µM is 1.1. In addition, under setting [6], the fold induction at 100 µM is < 1.

For `COc1ccc(Cc2ccc(O[C@H]3OC[C@H](O)[C@H](O)[C@H]3O)cc2F)cc1` [Example 47, (2R,3R,4S,5S)-2-(3-fluoro-4-(4-methoxybenzyl)phenoxy)tetrahydro-2H-pyran-3,4,5-trio], the fold induction at 10 µM under setting [1] came to 1. Further, the fold induction at 100 µM under setting [2] turned out to be 1.2.

For `Cc1ccc2oc(-c3ccc(O[C@@H]4OC[C@H](O)[C@H](O)[C@H]4O)c(F)c3)nc2c1` [Example 104, (2S,3R,4S,5S)-2-(2-fluoro-4-(5-methylbenzo[d]oxazol-2-yl)phenoxy)tetrahydro-2H-pyran-3,4,5-triol], the HRE expression result is on record as “more than threefold”. For the same compound, the fold induction at 10 µM under setting [3] worked out at 3.6. The fold induction at 100 µM under setting [4] was determined as 2.

Turning to `COc1ccc(C(=O)c2ccc(O[C@H]3OC[C@H](O)[C@H](O)[C@H]3O)cc2)cc1` [Example 71, (4-methoxyphenyl)(4-(((2R,3R,4S,5S)-3,4,5-trihydroxytetrahydro-2H-pyran-2-yl)oxy)phenyl)methanone], under setting [1], the fold induction at 10 µM turned out to be 1.3. In addition, the fold induction at 100 µM under setting [2] was determined as 2.

Consider `COc1ccc(Cc2ccc(O[C@H]3OC[C@@H](O)[C@H](O)[C@H]3O)cc2)cc1` [Example 42, (2R,3R,4S,5R)-2-(4-(4-methoxybenzyl)phenoxy) tetrahydro-2H-pyran-3,4,5-triol], for which the fold induction at 10 µM under setting [1] worked out at 2.4. In addition, the fold induction at 100 µM under setting [2] was determined as 3.1.

`O[C@@H]1[C@@H](O)[C@@H](Oc2ccc(CC3CCCC3)cc2)OC[C@@H]1O` [Example 21, (2R,3R,4S,5S)-2-(4-(cyclopentylmethyl)phenoxy)tetrahydro-2H-pyran-3,4,5-triol]: the fold induction at 10 µM under setting [5] came out at 2.3. Also, the fold induction at 100 µM under setting [6] worked out at 2.4.

As to `CC(C)c1ccc(Oc2ccc(O[C@H]3OC[C@H](O)[C@H](O)[C@H]3O)c(F)c2)cc1` [Example 68, (2R,3R,4S,5S)-2-(2-fluoro-4-(4-isopropylphenoxy)phenoxy)tetrahydro-2H-pyran-3,4,5-triol], the HRE expression entry is on record as “more than threefold”. Also, under setting [1], the fold induction at 10 µM was 4.3. Besides, the fold induction at 100 µM under setting [2] stood at 4.4.

Regarding `COc1ccc(Cc2ccc(O[C@H]3OC[C@H](O)[C@H](O)[C@H]3OC)cc2)cc1` [Example 5, (3S,4S,5R,6R)-5-methoxy-6-(4-(4-methoxybenzyl)phenoxy)tetrahydro-2H-pyran-3,4-diol], under setting [5], the fold induction at 10 µM worked out at 1.2. For the same compound, the fold induction at 100 µM under setting [6] came to 1.9.

As to `CCc1ccc2c(-c3ccc(O[C@H]4OC[C@H](O)[C@H](O)[C@H]4O)cc3)coc2c1` [Example 95, (2R,3R,4S,5S)-2-(4-(6-ethylbenzofuran-3-yl)phenoxy) tetrahydro-2H-pyra-3,4,5-triol], under setting [3], the fold induction at 10 µM amounted to 2.6. Further, the fold induction at 100 µM under setting [4] turned out to be 3.1.

Turning to `COc1cc(Cc2ccc(O[C@H]3OC[C@H](O)[C@H](O)[C@H]3O)cc2)cc(OC)c1OC` [Example 18, (2R,3R,4S,5S)-2-(4-(3,4,5-trimethoxybenzyl)phenoxy) tetrahydro-2H-pyran-3,4,5-triol], the fold induction at 10 µM under setting [5] stood at 1.2. Also, under setting [6], the fold induction at 100 µM amounted to 1.3.

For `COc1ccc2oc(-c3ccc(O[C@@H]4OC[C@H](O)[C@H](O)[C@H]4O)cc3)nc2c1` [Example 92, (2S,3R,4S,5S)-2-(4-(5-methoxybenzo[d]oxazol-2-yl)phenoxy)tetrahydro-2H-pyran-3,4,5-triol], the HRE expression entry is recorded as “more than threefold”. Further, the fold induction at 10 µM under setting [3] turned out to be 3. Also, under setting [4], the fold induction at 100 µM came out at 1.6.

`COc1ccc(Cc2ccc(O[C@H]3OC[C@H](O)[C@H](O)[C@H]3O)cc2)c(Cl)c1` [Example 49, (2R,3R,4S,5S)-2-(4-(2-chloro-4-methoxybenzyl)phenoxy)tetrahydro-2H-pyran-3,4,5-triol]: the fold induction at 10 µM under setting [1] came to 1. Further, under setting [2], the fold induction at 100 µM came out at 1.1.

Source of the values: patent EP4810508A1, “ARABINOSE DERIVATIVE COMPOUND, AND COMPOSITION COMPRISING SAME FOR PREVENTING OR TREATING DEGENERATIVE BRAIN DISEASES” (Digmbio. Inc., priority 2023, dated 2025).
